# Experimental data published in ChEMBL document CHEMBL5550160, “Leveraging a rationally designed veliparib-based anilide eliciting anti-leukemic effects for the design of pH-responsive polymer nanoformulation” (Eur J Med Chem, 2024).
# pIC50: −log10 of the molar value. The source made the active and inactive calls. No cut-off for these calls is given here.
# Tests used:
# FaDu = experiment: cells; type: functional, cell-based; conditions: Homo sapiens
# Description: Antiproliferative activity against human FaDu cells assessed as inhibition of cell growth by MTT assay
# [1] = target: T1, Histone deacetylase 8 (Homo sapiens) (UniProt Q9BY41); experiment: Inhibition of HDAC8 (unknown origin) assessed as residual activity at 1 x 10^-5M (reference value: 100%); conditions: dose 1.0 10^-5M
# T1 sequence (whole entry): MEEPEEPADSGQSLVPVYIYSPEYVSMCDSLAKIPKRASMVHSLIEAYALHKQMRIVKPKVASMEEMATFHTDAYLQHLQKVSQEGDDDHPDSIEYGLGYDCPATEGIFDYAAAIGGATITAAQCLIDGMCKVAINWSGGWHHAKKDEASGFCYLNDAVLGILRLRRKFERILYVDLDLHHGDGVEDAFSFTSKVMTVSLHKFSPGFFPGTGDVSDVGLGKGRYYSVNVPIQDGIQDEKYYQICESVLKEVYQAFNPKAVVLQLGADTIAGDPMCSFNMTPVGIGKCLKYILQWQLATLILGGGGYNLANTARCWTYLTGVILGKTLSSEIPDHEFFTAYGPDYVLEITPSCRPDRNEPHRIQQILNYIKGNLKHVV
# [2] = target: T2, Protein deacetylase HDAC6 (Homo sapiens) (UniProt Q9UBN7); experiment: Inhibition of HDAC6 (unknown origin) using p53 residues 379 to 382 [RHKK(Ac)] as fluorogenic substrate assessed as residual activity at 1.23 x 10^-7M (reference value: 101.06%); conditions: dose 1.23 10^-7M
# T2 sequence (whole entry): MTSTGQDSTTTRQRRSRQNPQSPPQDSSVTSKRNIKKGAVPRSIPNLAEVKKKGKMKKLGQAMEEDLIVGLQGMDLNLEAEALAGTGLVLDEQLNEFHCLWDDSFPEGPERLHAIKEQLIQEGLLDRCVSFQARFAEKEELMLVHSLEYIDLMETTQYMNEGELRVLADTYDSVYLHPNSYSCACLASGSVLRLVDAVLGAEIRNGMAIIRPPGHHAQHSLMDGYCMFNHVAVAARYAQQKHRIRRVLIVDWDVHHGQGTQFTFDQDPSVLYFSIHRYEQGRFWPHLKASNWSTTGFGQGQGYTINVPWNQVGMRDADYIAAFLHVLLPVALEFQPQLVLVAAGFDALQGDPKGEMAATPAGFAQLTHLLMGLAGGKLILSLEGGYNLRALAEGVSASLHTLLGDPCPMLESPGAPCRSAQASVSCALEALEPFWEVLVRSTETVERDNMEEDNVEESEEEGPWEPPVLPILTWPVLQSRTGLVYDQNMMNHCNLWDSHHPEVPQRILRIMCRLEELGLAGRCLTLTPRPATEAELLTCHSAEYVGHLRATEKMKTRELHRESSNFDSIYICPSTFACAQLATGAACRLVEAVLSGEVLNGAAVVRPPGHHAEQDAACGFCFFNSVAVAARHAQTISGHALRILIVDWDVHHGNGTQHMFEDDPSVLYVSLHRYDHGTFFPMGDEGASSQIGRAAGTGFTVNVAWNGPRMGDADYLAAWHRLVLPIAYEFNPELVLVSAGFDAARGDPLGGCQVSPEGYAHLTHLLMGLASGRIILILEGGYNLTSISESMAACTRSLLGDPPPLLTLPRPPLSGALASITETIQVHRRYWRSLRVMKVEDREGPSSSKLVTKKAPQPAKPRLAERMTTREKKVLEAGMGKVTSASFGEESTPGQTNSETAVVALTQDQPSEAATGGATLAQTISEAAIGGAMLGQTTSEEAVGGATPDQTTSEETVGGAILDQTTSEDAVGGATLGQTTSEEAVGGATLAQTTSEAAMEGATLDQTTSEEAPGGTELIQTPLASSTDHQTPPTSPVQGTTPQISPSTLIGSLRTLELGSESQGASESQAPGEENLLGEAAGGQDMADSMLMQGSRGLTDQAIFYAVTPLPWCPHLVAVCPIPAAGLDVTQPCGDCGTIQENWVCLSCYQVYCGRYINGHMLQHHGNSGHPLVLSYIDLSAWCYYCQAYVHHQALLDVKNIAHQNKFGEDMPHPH
# [3] = target: T3, Polyamine deacetylase HDAC10 (Homo sapiens) (UniProt Q969S8); experiment: Inhibition of HDAC10 (unknown origin) assessed as residual activity at 4.12 x 10^-8M (reference value: 101.54%); conditions: dose 4.12 10^-8M
# T3 sequence (whole entry): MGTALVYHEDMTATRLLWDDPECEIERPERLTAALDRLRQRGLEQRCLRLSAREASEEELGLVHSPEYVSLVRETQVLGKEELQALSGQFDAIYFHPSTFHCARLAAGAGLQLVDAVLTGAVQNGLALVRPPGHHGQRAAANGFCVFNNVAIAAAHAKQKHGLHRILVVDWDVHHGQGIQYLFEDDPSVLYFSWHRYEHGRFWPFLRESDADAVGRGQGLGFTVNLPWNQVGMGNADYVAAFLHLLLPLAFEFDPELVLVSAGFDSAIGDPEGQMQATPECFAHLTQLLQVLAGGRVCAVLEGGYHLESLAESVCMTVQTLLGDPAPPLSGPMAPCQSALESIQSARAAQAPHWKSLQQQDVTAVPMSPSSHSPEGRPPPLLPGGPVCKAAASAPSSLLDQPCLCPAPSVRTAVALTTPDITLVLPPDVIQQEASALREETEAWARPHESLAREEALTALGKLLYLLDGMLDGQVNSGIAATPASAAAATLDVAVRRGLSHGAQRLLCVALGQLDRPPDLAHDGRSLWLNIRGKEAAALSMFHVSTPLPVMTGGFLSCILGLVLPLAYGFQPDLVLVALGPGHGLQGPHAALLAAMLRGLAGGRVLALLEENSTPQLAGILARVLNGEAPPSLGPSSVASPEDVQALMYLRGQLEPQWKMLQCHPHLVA
# Histone deacetylase 1 = Histone deacetylase 1 (Homo sapiens, UniProt Q13547); experiment: Inhibition of HDAC1 (unknown origin) using p53 residues 379 to 382 [RHKK(Ac)] as fluorogenic substrate
# Histone deacetylase 1, sequence (Q13547 whole entry, the tested form may be a part): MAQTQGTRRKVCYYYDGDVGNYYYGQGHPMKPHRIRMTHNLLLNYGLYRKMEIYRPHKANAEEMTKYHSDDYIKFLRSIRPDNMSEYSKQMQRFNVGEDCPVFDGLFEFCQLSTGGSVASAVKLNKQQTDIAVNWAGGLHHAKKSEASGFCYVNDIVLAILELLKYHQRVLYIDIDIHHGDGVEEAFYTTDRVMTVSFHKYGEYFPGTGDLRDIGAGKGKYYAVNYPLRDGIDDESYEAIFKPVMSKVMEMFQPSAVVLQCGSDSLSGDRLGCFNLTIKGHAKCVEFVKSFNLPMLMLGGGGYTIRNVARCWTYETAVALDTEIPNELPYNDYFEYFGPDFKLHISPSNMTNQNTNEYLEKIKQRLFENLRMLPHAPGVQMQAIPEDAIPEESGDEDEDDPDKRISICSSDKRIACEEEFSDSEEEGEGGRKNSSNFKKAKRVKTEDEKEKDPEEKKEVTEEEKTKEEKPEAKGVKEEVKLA
# HL-60 [4] = experiment: Downregulation of PARP-1 protein expression in human HL-60 cells by Western blot analysis; type: functional, cell-based
# HL-60 [5] = experiment: Induction of apoptosis in human HL-60 cells assessed as disintegration of mitochondrial nuclear condensation at 0.5 to 1 times IC50 by DAPI staining based microscopic analysis; type: functional, cell-based
smiles,measurement,setting,value
NC(=O)c1cccc2[nH]c(-c3ccc(NCc4ccc(C(=O)Nc5ccccc5N)cc4)cc3)nc12,pIC50,FaDu,< 5.00
same,Activity,[1],69.5%
same,Activity,[2],91.9%
same,Activity,[3],102%
same,pIC50,Histone deacetylase 1,7.30
same,Activity,HL-60 [4],Active
same,Activity,HL-60 [5],inactive
